Reference: US8697683B2, “Azetidinyl diamides as monoacylglycerol lipase inhibitors” (Janssen Pharmaceutica, NV, priority 2009, dated 2014)

Molecular target: T1, MGL (Rattus norvegicus, UniProt Q8R431)
T1 construct: one g rat brain was homogenized
T1 sequence (Q8R431 1-303): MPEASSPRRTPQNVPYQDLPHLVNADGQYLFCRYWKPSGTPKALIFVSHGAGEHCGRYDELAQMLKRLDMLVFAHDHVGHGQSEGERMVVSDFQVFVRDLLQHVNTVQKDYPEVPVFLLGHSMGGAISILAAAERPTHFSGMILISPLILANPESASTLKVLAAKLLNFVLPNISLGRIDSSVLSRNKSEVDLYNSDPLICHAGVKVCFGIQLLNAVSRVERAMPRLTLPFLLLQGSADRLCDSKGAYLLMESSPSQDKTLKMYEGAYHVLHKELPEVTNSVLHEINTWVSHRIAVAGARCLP
Test: 2-AG Accumulation Assay (rat brain homogenate)
Type: biochemical
Details: percent of vehicle 2-AG accumulation; for Rat Brain 2AG % VehCntrl (%) @10 μM: compound 10 μM; for Rat Brain 2AG % VehCntrl (%) @1 μM: compound 1 μM

| Compound | Rat Brain 2AG % VehCntrl (%) @10 μM | Rat Brain 2AG % VehCntrl (%) @1 μM |
| --- | --- | --- |
| O=C(c1ccc(-c2ccccc2)cc1)N1CC(N2CCN(C(=O)c3nccs3)CC2)C1 [Cpd 9, 1-[1-(Biphenyl-4-ylcarbonyl)azetidin-3-yl]-4-(1,3-thiazol-2-ylcarbonyl)piperazine] | 1026% | – |
| O=C(c1ccccc1)N1CCN(C2CN(C(=O)c3ccc4nc(-c5cccc(C(F)(F)F)c5)oc4c3)C2)CC1 [Cpd 131, 6-({3-[4-(Phenylcarbonyl)piperazin-1-yl]azetidin-1-yl}carbonyl)-2-[3-(trifluoromethyl)phenyl]-1,3-benzoxazole] | 1406% | – |
| O=C(c1ccc(-c2ccc(C(F)(F)F)cc2)cc1)N1CC(N2CCN(C(=O)c3nccs3)CC2)C1 [Cpd 150, 1-(1,3-Thiazol-2-ylcarbonyl)-4-(1-{[4′-(trifluoromethyl)biphenyl-4-yl]carbonyl}azetidin-3-yl)piperazine] | 1104% | – |
| N#Cc1cccc(-c2ccc(C(=O)N3CC(N4CCN(C(=O)c5nccs5)CC4)C3)cc2)c1 [Cpd 161, 4′-({3-[4-(1,3-Thiazol-2-ylcarbonyl)piperazin-1-yl]azetidin-1-yl}carbonyl)biphenyl-3-carbonitrile] | 1280% | – |
| O=C(c1ccc(-c2cccc(Cl)c2)cc1)N1CC(N2CCN(C(=O)c3nccs3)CC2)C1 [Cpd 162, 1-{1-[(3′-Chlorobiphenyl-4-yl)carbonyl]azetidin-3-yl}-4-(1,3-thiazol-2-ylcarbonyl)piperazine] | 1099% | – |
| O=C(c1ccc(-c2ccc(F)cc2)cc1)N1CC(N2CCN(C(=O)c3nccs3)CC2)C1 [Cpd 174, 1-{1-[(4′-Fluorobiphenyl-4-yl)carbonyl]azetidin-3-yl}-4-(1,3-thiazol-2-ylcarbonyl)piperazine] | 1258% | – |
| O=C(c1ccc(-c2ccc(Cl)c(Cl)c2)cc1)N1CC(N2CCN(C(=O)c3nccs3)CC2)C1 [Cpd 175, 1-{1-[(3′,4′-Dichlorobiphenyl-4-yl)carbonyl]azetidin-3-yl}-4-(1,3-thiazol-2-ylcarbonyl)piperazine] | 1180% | – |
| Cc1cccc(-c2ccc(C(=O)N3CC(N4CCN(C(=O)c5nccs5)CC4)C3)cc2)c1 [Cpd 176, 1-{1-[(3′-Methylbiphenyl-4-yl)carbonyl]azetidin-3-yl}-4-(1,3-thiazol-2-ylcarbonyl)piperazine] | 1124% | – |
| O=C(c1ccc(-c2ccc(F)c(Cl)c2)cc1)N1CC(N2CCN(C(=O)c3nccs3)CC2)C1 [Cpd 178, 1-{1-[(3′-Chloro-4′-fluorobiphenyl-4-yl)carbonyl]azetidin-3-yl}-4-(1,3-thiazol-2-ylcarbonyl)piperazine] | 1192% | – |
| O=C(c1ccc(-c2ccc3c(c2)OCO3)cc1)N1CC(N2CCN(C(=O)c3nccs3)CC2)C1 [Cpd 181, 1-(1-{[4-(1,3-Benzodioxol-5-yl)phenyl]carbonyl}azetidin-3-yl)-4-(1,3-thiazol-2-ylcarbonyl)piperazine] | 1236% | – |
| O=C(c1ccc(-c2ccc3ccccc3c2)cc1)N1CC(N2CCN(C(=O)c3nccs3)CC2)C1 [Cpd 182, 1-{1-[(4-Naphthalen-2-ylphenyl)carbonyl]azetidin-3-yl}-4-(1,3-thiazol-2-ylcarbonyl)piperazine] | 1500% | – |
| O=C(c1ccc(-c2cccc([N+](=O)[O-])c2)cc1)N1CC(N2CCN(C(=O)c3nccs3)CC2)C1 [Cpd 183, 1-{1-[(3′-Nitrobiphenyl-4-yl)carbonyl]azetidin-3-yl}-4-(1,3-thiazol-2-ylcarbonyl)piperazine] | 1090% | – |
| CN(C)S(=O)(=O)Nc1cccc(-c2ccc(C(=O)N3CC(N4CCN(C(=O)c5ccccc5)CC4)C3)cc2)c1 [Cpd 205, N,N-Dimethyl-N′-[4′-({3-[4-(phenylcarbonyl)piperazin-1-yl]azetidin-1-yl}carbonyl)biphenyl-3-yl]sulfamide] | 1172% | – |
| CC(=O)c1ccc(-c2ccc(C(=O)N3CC(N4CCN(C(=O)c5nccs5)CC4)C3)cc2)cc1 [Cpd 209, 1-[4′-({3-[4-(1,3-Thiazol-2-ylcarbonyl)piperazin-1-yl]azetidin-1-yl}carbonyl)biphenyl-4-yl]ethanone] | 1681% | – |
| O=C(c1ccc(-c2ccc([N+](=O)[O-])cc2)cc1)N1CC(N2CCN(C(=O)c3nccs3)CC2)C1 [Cpd 215, 1-{1-[(4′-Nitrobiphenyl-4-yl)carbonyl]azetidin-3-yl}-4-(1,3-thiazol-2-ylcarbonyl)piperazine] | 1091% | – |
| N#CC=Cc1cccc(-c2ccc(C(=O)N3CC(N4CCN(C(=O)c5nccs5)CC4)C3)cc2)c1 [Cpd 223, 3-[4′-({3-[4-(1,3-Thiazol-2-ylcarbonyl)piperazin-1-yl]azetidin-1-yl}carbonyl)biphenyl-3-yl]prop-2-enenitrile] | 1261% | – |

| Compound | Rat Brain 2AG % VehCntrl (%) @10 μM | Rat Brain 2AG % VehCntrl (%) @1 μM |
| --- | --- | --- |
| O=C(c1ccc(-c2cccc(C(F)(F)F)c2)cc1)N1CC(N2CCN(C(=O)c3cscn3)CC2)C1 [Cpd 229, 1-(1,3-Thiazol-4-ylcarbonyl)-4-(1-{[3′-(trifluoromethyl)biphenyl-4-yl]carbonyl}azetidin-3-yl)piperazine] | 1304% | – |
| O=C(c1ccc(-c2cccc(C(F)(F)F)c2)cc1)N1CC(N2CCN(C(=O)c3nccs3)CC2)C1 [Cpd 237, 1-(1,3-Thiazol-2-ylcarbonyl)-4-(1-{[3′-(trifluoromethyl)biphenyl-4-yl]carbonyl}azetidin-3-yl)piperazine] | 1182% | 1044% |
| Cc1cc(-c2cccc(C(F)(F)F)c2)ccc1C(=O)N1CC(N2CCN(C(=O)c3nccs3)CC2)C1 [Cpd 239, 1-(1-{[3-Methyl-3′-(trifluoromethyl)biphenyl-4-yl]carbonyl}azetidin-3-yl)-4-(1,3-thiazol-2-ylcarbonyl)piperazine] | 1353% | 1097% |
| O=C(c1nccs1)N1CCN(C2CN(C(=O)c3ccc(-c4cccc(C(F)(F)F)c4)cc3Cl)C2)CC1 [Cpd 250, 1-(1-{[3-Chloro-3′-(trifluoromethyl)biphenyl-4-yl]carbonyl}azetidin-3-yl)-4-(1,3-thiazol-2-ylcarbonyl)piperazine] | 1327% | 1011% |
| CC1(C)CCC(C)(C)c2cc(CCC(=O)N3CC(N4CCN(C(=O)c5nccs5)CC4)C3)ccc21 [Cpd 282, 1-{1-[3-(5,5,8,8-Tetramethyl-5,6,7,8-tetrahydronaphthalen-2-yl)propanoyl]azetidin-3-yl}-4-(1,3-thiazol-2-ylcarbonyl)piperazine] | 1775% | – |
| CN(CC1CCCCC1)c1ccc(CCC(=O)N2CC(N3CCN(C(=O)c4nccs4)CC3)C2)cc1 [Cpd 291, N-(Cyclohexylmethyl)-N-methyl-4-(3-oxo-3-{3-[4-(1,3-thiazol-2-ylcarbonyl)piperazin-1-yl]azetidin-1-yl}propyl)aniline] | 1019% | – |
| O=C(c1nccs1)N1CCN(C2CN(C(=O)c3sc4cc(C(F)(F)F)ccc4c3Cl)C2)CC1 [Cpd 324, 1-(1-{[3-Chloro-6-(trifluoromethyl)-1-benzothiophen-2-yl]carbonyl}azetidin-3-yl)-4-(1,3-thiazol-2-ylcarbonyl)piperazine] | 1265% | 1215% |
| O=C(c1nccs1)N1CCN(C2CN(C(=O)c3sc4cc(Br)ccc4c3Cl)C2)CC1 [Cpd 326, 1-{1-[(6-Bromo-3-chloro-1-benzothiophen-2-yl)carbonyl]azetidin-3-yl}-4-(1,3-thiazol-2-ylcarbonyl)piperazine] | – | 1336% |
| O=C(c1cc2c(C(F)(F)F)cccc2s1)N1CC(N2CCN(C(=O)c3nccs3)CC2)C1 [Cpd 327, 1-(1,3-Thiazol-2-ylcarbonyl)-4-(1-{[4-(trifluoromethyl)-1-benzothiophen-2-yl]carbonyl}azetidin-3-yl)piperazine] | 2005% | – |
| O=C(c1ccc2c(-c3ccccc3)cccc2c1)N1CC(N2CCN(C(=O)c3nccs3)CC2)C1 [Cpd 338, 1-{1-[(5-Phenylnaphthalen-2-yl)carbonyl]azetidin-3-yl}-4-(1,3-thiazol-2-ylcarbonyl)piperazine] | – | 2111% |
| O=C(c1nccs1)N1CCN(C2CN(C(=O)c3sc4cc(-c5ccccc5)ccc4c3Cl)C2)CC1 [Cpd 343, 1-{1-[(3-Chloro-6-phenyl-1-benzothiophen-2-yl)carbonyl]azetidin-3-yl}-4-(1,3-thiazol-2-ylcarbonyl)piperazine] | – | 1371% |
| O=C(c1ccc2c(c1)CCCN2Cc1ccc(C(F)(F)F)cc1)N1CC(N2CCN(C(=O)c3nccs3)CC2)C1 [Cpd 371, 6-({3-[4-(1,3-Thiazol-2-ylcarbonyl)piperazin-1-yl]azetidin-1-yl}carbonyl)-1-(4-trifluoromethylbenzyl)-1,2,3,4-tetrahydroquinoline] | – | 1138% |
| O=C(c1ccc(OCc2ccc(Cl)c(Cl)c2)c(F)c1)N1CC(N2CCN(C(=O)c3nccs3)CC2)C1 [Cpd 400, 1-[1-({4-[(3,4-Dichlorobenzyl)oxy]-3 fluorophenyl}carbonyl)azetidin-3-yl]-4-(1,3-thiazol-2-ylcarbonyl)piperazine] | 1076% | – |
| O=C(c1ccc(OCc2cccc(Cl)c2Cl)c(F)c1)N1CC(N2CCN(C(=O)c3nccs3)CC2)C1 [Cpd 405, 1-[1-({4-[(2,3-Dichlorobenzyl)oxy]-3-fluorophenyl}carbonyl)azetidin-3-yl]-4-(1,3-thiazol-2-ylcarbonyl)piperazine] | 1591% | – |
| O=C(c1ccc(SCc2cccc(Cl)c2)cc1)N1CC(N2CCN(C(=O)c3nccs3)CC2)C1 [Cpd 412, 1-[1-({4-[(3-Chlorobenzyl)sulfanyl]phenyl}carbonyl)azetidin-3-yl]-4-(1,3-thiazol-2-ylcarbonyl)piperazine] | 1271% | – |
